Laboratory results from PubChem BioAssay (NCI).
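Five concentrations, 48 hours, 96-well plates. GI50: concentration for 50% inhibition of growth. At the TGI there is no net growth.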

Key:
Test in all cases: growth of human tumour cells (NCI), 48 h; in the data active means GI50 below about 0.43 µM; inactive means the rest
[1] = system: A498 renal
[2] = system: K-562 leukemia
[3] = system: CAKI-1 renal
[4] = system: OVCAR-8 ovarian
[5] = system: SK-MEL-5 melanoma
[6] = system: HCC-2998 colon
[7] = system: T-47D breast
[8] = system: SK-MEL-2 melanoma
[9] = system: LOX IMVI melanoma
[10] = system: NCI-H460 lung
[11] = system: CCRF-CEM leukemia
[12] = system: DU-145 prostate
[13] = system: MDA-MB-231 breast
[14] = system: HCT-116 colon
[15] = system: OVCAR-3 ovarian
[16] = system: BT-549 breast
[17] = system: SF-268 CNS
[18] = system: HS 578T breast
[19] = system: MDA-MB-435
[20] = system: SK-MEL-28 melanoma
[21] = system: HT29 colon
[22] = system: SNB-75 CNS
[23] = system: SF-295 CNS
[24] = system: 786-0 renal
[25] = system: MALME-3M melanoma
[26] = system: KM12 colon
[27] = system: ACHN renal
[28] = system: RPMI-8226 leukemia
[29] = system: PC-3 prostate
[30] = system: M14 melanoma
[31] = system: NCI/ADR-RES ovarian
[32] = system: SK-OV-3 ovarian
[33] = system: UO-31 renal
[34] = system: SW-620 colon
[35] = system: U251 CNS
[36] = system: RXF 393 renal
[37] = system: OVCAR-4 ovarian
[38] = system: SNB-19 CNS
[39] = system: NCI-H23 lung
[40] = system: NCI-H522 lung
[41] = system: IGROV1 ovarian
[42] = system: SN12C renal
[43] = system: COLO 205 colon
[44] = system: HCT-15 colon
[45] = system: A549 NSCLC
[46] = system: UACC-257 melanoma
[47] = system: OVCAR-5 ovarian
[48] = system: MOLT-4 leukemia
[49] = system: TK-10 renal
[50] = system: NCI-H226 lung
[51] = system: HL-60(TB) leukemia
[52] = system: UACC-62 melanoma
[53] = system: SF-539 CNS
[54] = system: HOP-62 NSCLC
[55] = system: MCF7 breast
[56] = system: HOP-92 NSCLC
[57] = system: EKVX NSCLC
[58] = system: SR leukemia

Cn1cc(C2=C(c3cn(CCCCCN)c4ccccc34)C(=O)NC2=O)c2ccccc21
13.5 µM: TGI [9]
> 23.2 µM: TGI [15]
> 21 µM: TGI [43]
> 18 µM: TGI [55]
> 25 µM: TGI [1] | TGI [2] | TGI [3] | TGI [4] | TGI [6] | TGI [10] | TGI [12] | TGI [13] | TGI [17] | TGI [18] | TGI [19] | TGI [20] | TGI [22] | TGI [24] | TGI [25] | TGI [26] | TGI [27] | TGI [28] | TGI [29] | TGI [30] | TGI [31] | TGI [32] | TGI [33] | TGI [34] | TGI [35] | TGI [37] | TGI [38] | TGI [39] | TGI [40] | TGI [41] | TGI [42] | TGI [44] | TGI [45] | TGI [46] | TGI [47] | TGI [49] | TGI [50] | TGI [52] | TGI [54]
21.6 µM: TGI [7] | TGI [53]
9.47 µM: TGI [36]
> 22.9 µM: TGI [48]
13.4 µM: TGI [51]
24.3 µM: TGI [16]
> 22.8 µM: TGI [21]
> 19.7 µM: TGI [5]
inactive: GI50 [1] 11.3 µM | GI50 [2] 9.14 µM | GI50 [3] 8.25 µM | GI50 [4] 11 µM | GI50 [5] 7.46 µM | GI50 [6] > 25 µM | GI50 [7] 6.23 µM | GI50 [8] 7.1 µM | GI50 [9] 4.9 µM | GI50 [10] 9.73 µM | GI50 [11] 5.58 µM | GI50 [12] 13.8 µM | GI50 [13] 17.1 µM | GI50 [14] 5.85 µM | GI50 [15] 7.8 µM | GI50 [16] 8.62 µM | GI50 [17] 12.5 µM | GI50 [18] 11.5 µM | GI50 [19] 2.4 µM | GI50 [20] 12.7 µM | GI50 [21] 7.39 µM | GI50 [22] 1.08 µM | GI50 [23] 9.37 µM | GI50 [24] 9.83 µM | GI50 [25] 18.4 µM | GI50 [26] 17.8 µM | GI50 [27] 10.9 µM | GI50 [28] 9.24 µM | GI50 [29] 13.8 µM | GI50 [30] 12.4 µM | GI50 [31] 12.8 µM | GI50 [32] 10.9 µM | GI50 [33] 5.52 µM | GI50 [34] 9.64 µM | GI50 [35] 10.8 µM | GI50 [36] 3.66 µM | GI50 [37] 12.7 µM | GI50 [38] > 25 µM | GI50 [39] 9.98 µM | GI50 [40] 15.5 µM | GI50 [41] 14.7 µM | GI50 [42] 9.33 µM | GI50 [43] 6.06 µM | GI50 [44] 7.01 µM | GI50 [45] 10.1 µM | GI50 [46] 23.1 µM | GI50 [47] > 25 µM | GI50 [48] 8.09 µM | GI50 [49] 10.6 µM | GI50 [50] > 25 µM | GI50 [51] 6.07 µM | GI50 [52] 10.3 µM | GI50 [53] 6.42 µM | GI50 [54] 15.2 µM | GI50 [55] 5.51 µM
18.2 µM: TGI [8]
> 16.7 µM: TGI [14]
> 20.1 µM: TGI [23]
> 20.6 µM: TGI [11]

C=CC1CC1(CO)COc1cc(Cl)nc(N)n1 (configuration not stated)
inactive: GI50 [22] 86.4 µM

Cc1cc(S(=O)(=O)N/N=C(\Sc2cc(Cl)c(C)cc2S(N)(=O)=O)c2ccc(Cl)cc2)c(Cl)cc1Cl
67.9 µM: TGI [39]
86.4 µM: TGI [28]
73.9 µM: TGI [27]
61.5 µM: TGI [53]
inactive: GI50 [1] 57.1 µM | GI50 [2] 67.7 µM | GI50 [3] 61.8 µM | GI50 [4] > 100 µM | GI50 [5] > 100 µM | GI50 [8] > 100 µM | GI50 [9] 30.8 µM | GI50 [10] > 100 µM | GI50 [11] 36.8 µM | GI50 [12] > 100 µM | GI50 [13] 34.2 µM | GI50 [14] 79.4 µM | GI50 [15] 31.1 µM | GI50 [16] 61.8 µM | GI50 [17] > 100 µM | GI50 [18] > 100 µM | GI50 [19] > 100 µM | GI50 [20] > 100 µM | GI50 [23] > 100 µM | GI50 [24] 42.1 µM | GI50 [26] > 100 µM | GI50 [27] 25.6 µM | GI50 [28] 27.3 µM | GI50 [29] 86.4 µM | GI50 [30] > 100 µM | GI50 [31] > 100 µM | GI50 [56] 47.6 µM | GI50 [32] > 100 µM | GI50 [33] 57.1 µM | GI50 [34] 40.4 µM | GI50 [35] 53.1 µM | GI50 [36] 54.8 µM | GI50 [37] 63.1 µM | GI50 [38] > 100 µM | GI50 [39] 26.7 µM | GI50 [40] 72.7 µM | GI50 [41] 70.2 µM | GI50 [42] 97.2 µM | GI50 [43] > 100 µM | GI50 [44] > 100 µM | GI50 [45] 36.6 µM | GI50 [46] 44.5 µM | GI50 [47] > 100 µM | GI50 [57] > 100 µM | GI50 [48] 48.3 µM | GI50 [49] > 100 µM | GI50 [50] 58.3 µM | GI50 [51] 76.4 µM | GI50 [52] > 100 µM | GI50 [53] 28.6 µM | GI50 [58] 64.2 µM | GI50 [54] > 100 µM | GI50 [55] 42.8 µM
> 100 µM: TGI [1] | TGI [2] | TGI [3] | TGI [4] | TGI [5] | TGI [8] | TGI [10] | TGI [11] | TGI [12] | TGI [13] | TGI [14] | TGI [15] | TGI [16] | TGI [17] | TGI [18] | TGI [19] | TGI [20] | TGI [23] | TGI [24] | TGI [26] | TGI [29] | TGI [30] | TGI [31] | TGI [56] | TGI [32] | TGI [33] | TGI [34] | TGI [35] | TGI [36] | TGI [37] | TGI [38] | TGI [40] | TGI [41] | TGI [42] | TGI [43] | TGI [44] | TGI [45] | TGI [46] | TGI [47] | TGI [57] | TGI [48] | TGI [49] | TGI [50] | TGI [51] | TGI [52] | TGI [58] | TGI [54] | TGI [55]
99.6 µM: TGI [9]
